In this assay the target is influenza A virus minigenome (PB2, PB1, PA, NP proteins) (UniProt P04665). The class given is cell-based. Particulars: read-out: RNP_Hubei B.
Sequence of influenza A virus minigenome (PB2, PB1, PA, NP proteins) (P04665 whole entry): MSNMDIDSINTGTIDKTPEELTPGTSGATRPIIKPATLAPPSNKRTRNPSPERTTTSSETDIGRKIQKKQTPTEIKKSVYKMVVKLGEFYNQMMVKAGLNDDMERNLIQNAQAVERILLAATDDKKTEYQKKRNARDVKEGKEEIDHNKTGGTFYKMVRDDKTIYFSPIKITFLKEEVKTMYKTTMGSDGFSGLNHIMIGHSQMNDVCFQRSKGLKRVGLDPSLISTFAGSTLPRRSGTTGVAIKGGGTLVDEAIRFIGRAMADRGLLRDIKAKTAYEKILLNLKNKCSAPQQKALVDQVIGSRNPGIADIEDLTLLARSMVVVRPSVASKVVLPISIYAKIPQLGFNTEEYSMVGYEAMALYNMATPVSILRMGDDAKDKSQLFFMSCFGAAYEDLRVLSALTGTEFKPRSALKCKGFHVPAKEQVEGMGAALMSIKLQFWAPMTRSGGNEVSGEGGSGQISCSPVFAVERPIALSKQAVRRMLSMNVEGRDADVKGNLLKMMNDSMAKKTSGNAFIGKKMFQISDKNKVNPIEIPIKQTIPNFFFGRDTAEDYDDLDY
In the case of `COCc1ccc(-c2cc(C(N)=O)c(=O)[nH]c2C(F)(F)F)cc1` [Example 15, 5-(4-(methoxymethyl)phenyl)-2-oxo-6-(trifluoromethyl)-1,2-dihydropyridine-3-carboxamide], the IC50 lay in the range of 25 to 50 µM.

For the molecule `NC(=O)c1cc(-c2ccccc2)c(C(F)(F)F)[nH]c1=O` [Example 16, 2-oxo-5-phenyl-6-(trifluoromethyl)-1,2-dihydropyridine-3-carboxamide], the IC50 lay within 25 to 50 µM.

On to `CC(C)Oc1ccc(-c2cc(C(N)=O)c(=O)[nH]c2C(F)(F)F)cc1` [Example 17, 5-(4-isopropoxyphenyl)-2-oxo-6-(trifluoromethyl)-1,2-dihydropyridine-3-carboxamide], for which the IC50 lay within 10 to 25 µM.

Regarding `COc1ccc(-c2cc(C(N)=O)c(=O)[nH]c2C(F)(F)F)cc1Cl` [Example 18, 5-(3-chloro-4-methoxyphenyl)-2-oxo-6-(trifluoromethyl)-1,2-dihydropyridine-3-carboxamide], the IC50 was 10 to 25 µM.

On to `N#CCc1ccc(-c2cc(C(N)=O)c(=O)[nH]c2C(F)(F)F)cc1` [Example 20, 5-(4-(cyanomethyl)phenyl)-2-oxo-6-(trifluoromethyl)-1,2-dihydropyridine-3-carboxamide], for which the IC50 was 25 to 50 µM.

Consider `CC1COCCN1Cc1ccc(-c2cc(C(N)=O)c(=O)[nH]c2C(F)(F)F)cc1` (centres unmarked) [Example 27, 5-(4-((3-methylmorpholino)methyl)phenyl)-2-oxo-6-(trifluoromethyl)-1,2-dihydropyridine-3-carboxamide], for which the IC50 lay in the range of 10 to 25 µM.

Regarding `NC(=O)c1cc(-c2ccc(CN3CCSCC3)cc2)c(C(F)(F)F)[nH]c1=O` [Example 28, 2-oxo-5-(4-(thiomorpholinomethyl)phenyl)-6-(trifluoromethyl)-1,2-dihydropyridine-3-carboxamide], the IC50 lay in the range of 1 to 5 µM.

As for `CC1CN(Cc2ccc(-c3cc(C(N)=O)c(=O)[nH]c3C(F)(F)F)cc2)CCO1` (centres unmarked) [Example 29, 5-(4-((2-methylmorpholino)methyl)phenyl)-2-oxo-6-(trifluoromethyl)-1,2-dihydropyridine-3-carboxamide], the IC50 fell in the range of 10 to 25 µM.

For `NC(=O)c1cc(-c2ccc(CN3CCOCC34CC4)cc2)c(C(F)(F)F)[nH]c1=O` [Example 30, 5-(4-((7-oxa-4-azaspiro[2.5]octan-4-yl)methyl)phenyl)-2-oxo-6-(trifluoromethyl)-1,2-dihydropyridine-3-carboxamide], the IC50 is 5 to 10 µM.

On to `NC(=O)c1cc(-c2ccc(CN3C[C@H]4CC[C@@H](C3)O4)cc2)c(C(F)(F)F)[nH]c1=O` [Example 31, 5-(4-(((1R,5S)-8-oxa-3-azabicyclo[3.2.1]octan-3-yl)methyl)phenyl)-2-oxo-6-(trifluoromethyl)-1,2-dihydropyridine-3-carboxamide], for which the IC50 is 1 to 5 µM.

Regarding `NC(=O)c1cc(-c2ccc(CN3CCOCC3c3cccnc3)cc2)c(C(F)(F)F)[nH]c1=O` (centres unmarked) [Example 32, 2-oxo-5-(4-((3-(pyridin-3-yl)morpholino)methyl)phenyl)-6-(trifluoromethyl)-1,2-dihydropyridine-3-carboxamide], the IC50 was in the range of 25 to 50 µM.

As for `CC(c1ccc(-c2cc(C(N)=O)c(=O)[nH]c2C(F)(F)F)cc1)N1CCOCC1` (centres unmarked) [Example 33, 5-(4-(1-morpholinoethyl)phenyl)-2-oxo-6-(trifluoromethyl)-1,2-dihydropyridine-3-carboxamide], the IC50 was 1 to 5 µM.

Consider `NC(=O)c1cc(-c2ccc(CN3CCCOCC3)cc2)c(C(F)(F)F)[nH]c1=O` [Example 34, 5-(4-((1,4-oxazepan-4-yl)methyl)phenyl)-2-oxo-6-(trifluoromethyl)-1,2-dihydropyridine-3-carboxamide], for which the IC50 was 25 to 50 µM.

Consider `C[C@@H]1CN(Cc2ccc(-c3cc(C(N)=O)c(=O)[nH]c3C(F)(F)F)cc2)C[C@H](C)O1` [Example 35, 5-(4-(((2S,6R)-2,6-dimethylmorpholino)methyl)phenyl)-2-oxo-6-(trifluoromethyl)-1,2-dihydropyridine-3-carboxamide], for which the IC50 fell in the range of 25 to 50 µM.

On to `NC(=O)c1cc(-c2ccc(CN3CCOCC3)c(F)c2)c(C(F)(F)F)[nH]c1=O` [Example 36, 5-(3-fluoro-4-(morpholinomethyl)phenyl)-2-oxo-6-(trifluoromethyl)-1,2-dihydropyridine-3-carboxamide], for which the IC50 was in the range of 10 to 25 µM.

For `CC(O)c1ccc(-c2cc(C(N)=O)c(=O)[nH]c2C(F)(F)F)cc1` (centres unmarked) [Example 37, 5-(4-(1-hydroxyethyl)phenyl)-2-oxo-6-(trifluoromethyl)-1,2-dihydropyridine-3-carboxamide], the IC50 fell in the range of 25 to 50 µM.

For the molecule `COC1CN(Cc2ccc(-c3cc(C(N)=O)c(=O)[nH]c3C(F)(F)F)cc2)C1` [Example 38, 5-(4-((3-methoxyazetidin-1-yl)methyl)phenyl)-2-oxo-6-(trifluoromethyl)-1,2-dihydropyridine-3-carboxamide], the IC50 is 25 to 50 µM.

As to `CC1(C)CN(Cc2ccc(-c3cc(C(N)=O)c(=O)[nH]c3C(F)(F)F)cc2)CCO1` [Example 39, 5-(4-((2,2-dimethylmorpholino)methyl)phenyl)-2-oxo-6-(trifluoromethyl)-1,2-dihydropyridine-3-carboxamide], the IC50 is 10 to 25 µM.

Take `CO[C@H]1CCN(Cc2ccc(-c3cc(C(N)=O)c(=O)[nH]c3C(F)(F)F)cc2)C1` [Example 40, (S)-5-(4-((3-methoxypyrrolidin-1-yl)methyl)phenyl)-2-oxo-6-(trifluoromethyl)-1,2-dihydropyridine-3-carboxamide]: the IC50 is 25 to 50 µM.

With `CO[C@@H]1CCN(Cc2ccc(-c3cc(C(N)=O)c(=O)[nH]c3C(F)(F)F)cc2)C1` [Example 41, (R)-5-(4-((3-methoxypyrrolidin-1-yl)methyl)phenyl)-2-oxo-6-(trifluoromethyl)-1,2-dihydropyridine-3-carboxamide], the IC50 lay in the range of 25 to 50 µM.

Turning to `NC(=O)c1cc(-c2ccc(CN3CCOCC3)cc2F)c(C(F)(F)F)[nH]c1=O` [Example 42, 5-(2-fluoro-4-(morpholinomethyl)phenyl)-2-oxo-6-(trifluoromethyl)-1,2-dihydropyridine-3-carboxamide], the IC50 was 10 to 25 µM.

Turning to `Cc1cc(-c2cc(C(N)=O)c(=O)[nH]c2C(F)(F)F)ccc1CN1CCOCC1` [Example 43, 5-(3-methyl-4-(morpholinomethyl)phenyl)-2-oxo-6-(trifluoromethyl)-1,2-dihydropyridine-3-carboxamide], the IC50 fell in the range of 1 to 5 µM.

Turning to `NC(=O)c1cc(-c2ccc(CN3CCCCC3)cc2)c(C(F)(F)F)[nH]c1=O` [Example 44, 2-oxo-5-(4-(piperidin-1-ylmethyl)phenyl)-6-(trifluoromethyl)-1,2-dihydropyridine-3-carboxamide], the IC50 was 25 to 50 µM.

As for `CN(C)Cc1ccc(-c2cc(C(N)=O)c(=O)[nH]c2C(F)(F)F)cc1` [Example 45, 5-(4-((dimethylamino)methyl)phenyl)-2-oxo-6-(trifluoromethyl)-1,2-dihydropyridine-3-carboxamide], the IC50 is 25 to 50 µM.

On to `NC(=O)c1cc(-c2ccc(CN3CCOCC3=O)cc2)c(C(F)(F)F)[nH]c1=O` [Example 46, 2-oxo-5-(4-((3-oxomorpholino)methyl)phenyl)-6-(trifluoromethyl)-1,2-dihydropyridine-3-carboxamide], for which the IC50 was 25 to 50 µM.

In the case of `NC(=O)c1cc(-c2ccc(CN3CCS(=O)(=O)CC3)cc2)c(C(F)(F)F)[nH]c1=O` [Example 47, 5-(4-((1,1-dioxidothiomorpholino)methyl)phenyl)-2-oxo-6-(trifluoromethyl)-1,2-dihydropyridine-3-carboxamide], the IC50 is 25 to 50 µM.

Take `NC(=O)c1cc(-c2ccc(C(c3cnco3)N3CCOCC3)cc2)c(C(F)(F)F)[nH]c1=O` (centres unmarked) [Example 48, 5-(4-(morpholino(oxazol-5-yl)methyl)phenyl)-2-oxo-6-(trifluoromethyl)-1,2-dihydropyridine-3-carboxamide]: the IC50 was 25 to 50 µM.

For the molecule `CS(=O)(=O)NCc1ccc(-c2cc(C(N)=O)c(=O)[nH]c2C(F)(F)F)cc1` [Example 49, 5-(4-(methylsulfonamidomethyl)phenyl)-2-oxo-6-(trifluoromethyl)-1,2-dihydropyridine-3-carboxamide], the IC50 is 25 to 50 µM.

As for `NC(=O)c1cc(-c2ccc(CC3(O)CCOCC3)cc2)c(C(F)(F)F)[nH]c1=O` [Example 50, 5-(4-((4-hydroxytetrahydro-2H-pyran-4-yl)methyl)phenyl)-2-oxo-6-(trifluoromethyl)-1,2-dihydropyridine-3-carboxamide], the IC50 fell in the range of 25 to 50 µM.

As to `NC(=O)c1cc(-c2ccc(CC3(F)CCOCC3)cc2)c(C(F)(F)F)[nH]c1=O` [Example 51, 5-(4-((4-fluorotetrahydro-2H-pyran-4-yl)methyl)phenyl)-2-oxo-6-(trifluoromethyl)-1,2-dihydropyridine-3-carboxamide], the IC50 is 5 to 10 µM.

For the molecule `NC(=O)c1cc(-c2ccc(OCc3cccc([N+](=O)[O-])c3)cc2)c(C(F)(F)F)[nH]c1=O` [Example 54, 5-(4-((3-nitrobenzyl)oxy)phenyl)-2-oxo-6-(trifluoromethyl)-1,2-dihydropyridine-3-carboxamide], the IC50 is 10 to 25 µM.

Regarding `CC(=O)N1CCC(COc2ccc(-c3cc(C(N)=O)c(=O)[nH]c3C(F)(F)F)cc2)CC1` [Example 55, 5-(4-((1-acetylpiperidin-4-yl)methoxy)phenyl)-2-oxo-6-(trifluoromethyl)-1,2-dihydropyridine-3-carboxamide], the IC50 was 25 to 50 µM.

For `NC(=O)c1cc(-c2ccc(OCC3CCOCC3)cc2)c(C(F)(F)F)[nH]c1=O` [Example 56, 2-oxo-5-(4-((tetrahydro-2H-pyran-4-yl)methoxy)phenyl)-6-(trifluoromethyl)-1,2-dihydropyridine-3-carboxamide], the IC50 fell in the range of 25 to 50 µM.

For the molecule `NC(=O)c1cc(-c2ccc(OCc3cccc(N)c3)cc2)c(C(F)(F)F)[nH]c1=O` [Example 57, 5-(4-((3-aminobenzyl)oxy)phenyl)-2-oxo-6-(trifluoromethyl)-1,2-dihydropyridine-3-carboxamide], the IC50 fell in the range of 5 to 10 µM.

Turning to `NC(=O)c1cc(-c2ccc(OCC3CCCCC3)cc2)c(C(F)(F)F)[nH]c1=O` [Example 58, 5-(4-(cyclohexylmethoxy)phenyl)-2-oxo-6-(trifluoromethyl)-1,2-dihydropyridine-3-carboxamide], the IC50 lay within 5 to 10 µM.
